Converted amounts (≈) assume the structure as drawn. The source made the active and inactive calls. The calls are words filed in the database; no cut-off is given here.
Experiments:
[1] = target: T1, Peroxisome proliferator-activated receptor alpha (Homo sapiens) (UniProt Q07869); assay: Transactivation of Gal4-tagged PPARalpha ligand binding domain (unknown origin) expressed in COS7 cells at 10 uM measured after overnight incubation by luciferase reporter gene assay; format: cell-based; details: COS-7
T1 sequence (whole entry): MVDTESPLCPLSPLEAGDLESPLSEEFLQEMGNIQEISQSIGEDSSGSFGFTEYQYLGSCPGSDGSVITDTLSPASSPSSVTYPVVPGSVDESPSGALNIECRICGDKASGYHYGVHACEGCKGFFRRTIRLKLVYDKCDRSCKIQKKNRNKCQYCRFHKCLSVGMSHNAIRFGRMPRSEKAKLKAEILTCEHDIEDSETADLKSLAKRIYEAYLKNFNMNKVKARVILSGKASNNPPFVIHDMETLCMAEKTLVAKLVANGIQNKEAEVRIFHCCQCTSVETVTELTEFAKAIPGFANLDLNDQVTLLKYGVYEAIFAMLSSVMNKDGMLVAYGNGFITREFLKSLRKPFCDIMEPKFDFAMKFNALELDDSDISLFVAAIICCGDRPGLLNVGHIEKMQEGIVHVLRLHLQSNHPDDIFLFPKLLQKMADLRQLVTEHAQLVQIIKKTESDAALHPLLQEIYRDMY

[2] = target: T2, Peroxisome proliferator-activated receptor gamma (Homo sapiens, UniProt P37231); assay: Transactivation of Gal4-tagged PPARgamma ligand binding domain (unknown origin) expressed in COS7 cells measured after overnight incubation by luciferase reporter gene assay; format: cell-based, COS-7
T2 sequence (P37231 whole entry): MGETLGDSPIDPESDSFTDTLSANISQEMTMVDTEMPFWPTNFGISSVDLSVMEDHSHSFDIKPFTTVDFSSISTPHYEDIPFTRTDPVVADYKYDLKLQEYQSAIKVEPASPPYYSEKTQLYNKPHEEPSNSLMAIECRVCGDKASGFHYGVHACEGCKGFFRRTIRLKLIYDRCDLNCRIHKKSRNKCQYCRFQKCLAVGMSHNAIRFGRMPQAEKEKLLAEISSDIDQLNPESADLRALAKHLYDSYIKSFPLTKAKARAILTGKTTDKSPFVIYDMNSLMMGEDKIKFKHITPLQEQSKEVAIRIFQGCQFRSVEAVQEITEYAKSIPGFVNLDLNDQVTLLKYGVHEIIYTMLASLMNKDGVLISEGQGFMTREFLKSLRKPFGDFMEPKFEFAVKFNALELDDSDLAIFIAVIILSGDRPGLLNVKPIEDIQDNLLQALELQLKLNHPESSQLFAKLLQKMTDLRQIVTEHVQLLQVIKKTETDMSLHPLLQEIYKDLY

[3] = target: T3, Peroxisome proliferator-activated receptor gamma (Homo sapiens) (UniProt P37231); assay: Transactivation of Gal4-tagged PPARgamma ligand binding domain (unknown origin) expressed in COS7 cells measured after overnight incubation by luciferase reporter gene assay relative to piaglitazone; format: cell-based; details: Chlorocebus aethiops; COS-7
T3 sequence (whole entry): T2 sequence (P37231 whole entry)

[4] = target: T4, Peroxisome proliferator-activated receptor delta (Homo sapiens) (UniProt Q03181); assay: Transactivation of Gal4-tagged PPARdelta ligand binding domain (unknown origin) expressed in COS7 cells at 30 uM measured after overnight incubation by luciferase reporter gene assay; format: cell-based; details: COS-7
T4 sequence (whole entry): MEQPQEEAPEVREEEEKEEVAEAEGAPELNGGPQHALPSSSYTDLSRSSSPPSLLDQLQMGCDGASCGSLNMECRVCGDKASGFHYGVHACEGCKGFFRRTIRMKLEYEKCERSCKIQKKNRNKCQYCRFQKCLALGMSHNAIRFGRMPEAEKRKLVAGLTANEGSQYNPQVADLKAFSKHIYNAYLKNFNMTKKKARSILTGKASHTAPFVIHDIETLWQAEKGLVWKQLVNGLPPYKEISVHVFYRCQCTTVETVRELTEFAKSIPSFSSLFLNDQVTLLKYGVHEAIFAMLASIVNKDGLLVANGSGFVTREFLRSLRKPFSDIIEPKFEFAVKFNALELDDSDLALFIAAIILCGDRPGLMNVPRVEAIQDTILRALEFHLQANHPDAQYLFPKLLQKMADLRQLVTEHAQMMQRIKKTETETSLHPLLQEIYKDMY

[5] = target: T5, Bile acid receptor (Homo sapiens) (UniProt Q96RI1); assay: Transactivation of human FXR expressed in human HeLa cells incubated for 24 hrs by luciferase reporter gene assay relative to GW4064; format: cell-based
T5 sequence (whole entry): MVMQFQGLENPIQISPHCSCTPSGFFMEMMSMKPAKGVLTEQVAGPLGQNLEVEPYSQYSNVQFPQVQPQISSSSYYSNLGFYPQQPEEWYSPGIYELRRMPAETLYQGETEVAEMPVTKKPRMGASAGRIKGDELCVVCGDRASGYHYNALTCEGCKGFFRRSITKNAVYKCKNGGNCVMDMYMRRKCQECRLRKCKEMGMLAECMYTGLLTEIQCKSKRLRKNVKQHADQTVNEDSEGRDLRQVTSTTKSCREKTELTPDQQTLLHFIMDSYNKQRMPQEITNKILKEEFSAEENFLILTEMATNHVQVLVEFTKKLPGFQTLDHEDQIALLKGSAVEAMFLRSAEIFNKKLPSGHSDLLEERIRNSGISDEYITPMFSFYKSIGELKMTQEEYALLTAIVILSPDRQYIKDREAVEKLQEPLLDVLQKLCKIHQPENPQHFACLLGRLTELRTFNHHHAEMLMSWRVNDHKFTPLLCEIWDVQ

[6] = target: T3, Peroxisome proliferator-activated receptor gamma (Homo sapiens); assay: Transactivation of Gal4-tagged PPARgamma ligand binding domain (unknown origin) expressed in COS7 cells at 10 uM measured after overnight incubation by luciferase reporter gene assay; format: cell-based; details: COS-7
[7] = target: T6, Peroxisome proliferator-activated receptor delta (Homo sapiens, UniProt Q03181); assay: Transactivation of Gal4-tagged PPARdelta ligand binding domain (unknown origin) expressed in COS7 cells measured after overnight incubation by luciferase reporter gene assay; format: cell-based, COS-7
T6 sequence (Q03181 whole entry): T4 sequence (whole entry)

[8] = target: T4, Peroxisome proliferator-activated receptor delta (Homo sapiens); assay: Transactivation of Gal4-tagged PPARdelta ligand binding domain (unknown origin) expressed in COS7 cells measured after overnight incubation by luciferase reporter gene assay relative to L165,041; format: cell-based; details: Chlorocebus aethiops; COS-7
[9] = target: T5, Bile acid receptor (Homo sapiens); assay: Transactivation of human FXR expressed in human HeLa cells at 30 uM incubated for 24 hrs by luciferase reporter gene assay; format: cell-based
[10] = Aqueous solubility of the compound; format: physicochemical; details: aqueous medium (not specified further)
[11] = target: T7, Peroxisome proliferator-activated receptor alpha (Homo sapiens, UniProt Q07869); assay: Transactivation of Gal4-tagged PPARalpha ligand binding domain (unknown origin) expressed in COS7 cells measured after overnight incubation by luciferase reporter gene assay; format: cell-based, COS-7
T7 sequence (Q07869 whole entry): T1 sequence (whole entry)

[12] = Antiproliferative activity against human HepG2 cells assessed as cell viability at 5 uM after 48 hrs by WST1 assay (reference value: 100%); format: cell-based; details: read-out: Activity
[13] = Antiproliferative activity against human HepG2 cells assessed as cell viability at 10 uM after 48 hrs by WST1 assay (reference value: 100%); format: cell-based; details: read-out: Activity
[14] = Antiproliferative activity against human HepG2 cells assessed as cell viability at 50 uM after 48 hrs by WST1 assay (reference value: 100%); format: cell-based; details: read-out: Activity
[15] = Cytotoxic activity against human HepG2 cells assessed as LDH release at 5 uM after 48 hrs by LDH release assay (reference value: 100%)
[16] = Cytotoxic activity against human HepG2 cells assessed as LDH release at 10 uM after 48 hrs by LDH release assay (reference value: 100%)
[17] = Cytotoxic activity against human HepG2 cells assessed as LDH release at 30 uM after 48 hrs by LDH release assay (reference value: 100%)
Bile acid receptor = target: T8, Bile acid receptor (Homo sapiens, UniProt Q96RI1); assay: Transactivation of human FXR expressed in human HeLa cells incubated for 24 hrs by luciferase reporter gene assay; format: cell-based
T8 sequence (Q96RI1 whole entry): T5 sequence (whole entry)

[18] = target: T1, Peroxisome proliferator-activated receptor alpha (Homo sapiens); assay: Transactivation of Gal4-tagged PPARalpha ligand binding domain (unknown origin) expressed in COS7 cells at 30 uM measured after overnight incubation by luciferase reporter gene assay; format: cell-based; details: COS-7
[19] = target: T3, Peroxisome proliferator-activated receptor gamma (Homo sapiens); assay: Transactivation of Gal4-tagged PPARgamma ligand binding domain (unknown origin) expressed in COS7 cells at 30 uM measured after overnight incubation by luciferase reporter gene assay; format: cell-based; details: COS-7

| SMILES | max activation [1] [%] | EC50 [2] [µM] | max activation [3] [%] | Activity [4] | max activation [5] [%] | EC50 [7] [µM] | max activation [8] [%] | Activity [9] | EC50 [11] [µM] | EC50 (Bile acid receptor) [µM] | other results |
| --- | --- | --- | --- | --- | --- | --- | --- | --- | --- | --- | --- |
| CC(C)(C)c1ccc(C(=O)Nc2ccccc2C(=O)Nc2cc(C(=O)O)ccc2Cl)cc1 | 16 | 1.9 | 154 | inactive | 16 |  |  |  |  |  |  |
| O=C(O)c1cccc(NC(=O)c2cc(Cl)ccc2NC(=O)c2ccc(C(F)(F)F)cc2)c1 | 25 | 4.7 | 415 |  | 16.9 | 6.3 | 24 |  |  | 3.4 |  |
| CC(C)(C)c1ccc(C(=O)Nc2ccccc2C(=O)Nc2cccc(C(N)=O)c2)cc1 |  |  |  | inactive | 15 |  |  |  |  | 0.07 | Activity [18]: inactive; Activity [19]: inactive |
| O=C(O)c1cccc(NC(=O)c2ccccc2NC(=O)c2cc(C(F)(F)F)cc(C(F)(F)F)c2)c1 | 15 | 11 | 114 | inactive |  |  |  | inactive |  |  |  |
| CC(C)(C)c1ccc(C(=O)Nc2cccc(Cl)c2C(=O)Nc2cccc(C(=O)O)c2)cc1 |  |  |  | inactive |  |  |  | inactive |  |  | Activity [18]: inactive; Activity [19]: inactive |

More lines, main results first:

| max activation [1] [%] | EC50 [2] [µM] | max activation [3] [%] | Activity [4] | max activation [5] [%] | EC50 [7] [µM] | max activation [8] [%] | Activity [9] | EC50 [11] [µM] | EC50 (Bile acid receptor) [µM] | SMILES | other results |
| --- | --- | --- | --- | --- | --- | --- | --- | --- | --- | --- | --- |
| 17.3 |  |  |  |  | 5.9 | 54 | inactive |  |  | COc1ccc(C(=O)Nc2ccccc2C(=O)Nc2cccc(CC(=O)O)c2)cc1 | max activation [6]: 13.2% |
|  | 5 | 98 | inactive | 22 |  |  |  | 0.21 |  | Cc1ccc(NC(=O)c2ccccc2NC(=O)c2ccc(C(C)(C)C)cc2)cc1C(=O)O | solubility [10]: 4.9 µM (≈ 2.11 µg/mL); viability at 48 h, 5 µM [12]: 106%; viability at 48 h, 10 µM [13]: 99.6%; viability at 48 h, 50 µM [14]: 82.5%; LDH release (% cytotoxicity) at 48 h, 5 µM [15]: -0.1%; LDH release (% cytotoxicity) at 48 h, 10 µM [16]: 2.2%; LDH release (% cytotoxicity) at 48 h, 30 µM [17]: 28.4% |
|  | 17.4 | 200 |  | 16.9 | 7.4 | 133 |  | 14.4 | 8.5 | CSc1ccc(C(=O)Nc2ccccc2C(=O)Nc2cccc(CC(=O)O)c2)cc1 |  |
| 12 | 41 | 397 | inactive |  |  |  | inactive |  |  | O=C(O)CCCNC(=O)c1ccccc1NC(=O)c1cccc2ccccc12 |  |
|  | 4.4 | 158 |  | 23 | 2.3 | 64 |  | 1.3 | 7 | O=C(O)Cc1cccc(NC(=O)c2ccccc2NC(=O)c2ccc(SC(F)(F)F)cc2)c1 |  |
